Results reported in US20190224166A1, “Compositions and Methods for Treating Muscle Loss” (Augusta University Research Institute, Inc., priority 2018, published 2019).
“Also recorded” adds a separate entry of the source.

How the values were obtained:
tibialis anterior = assay: Muscle ROS by Amplex red assay in aged mice treated with 1-methyl-D-tryptophan; format: in vivo
Procedure: (§1) Female mice 22 months of age were obtained from the National Institute on Aging and treated with saline (vehicle) or 1-methyl-D-tryptophan (1-MT, Sigma, 452483, lot#MKBZ1441V) at a low dose (10 mg/kg BW) or at a high dose (100 mg/kg BW). Mice were treated daily for 4 weeks. Treatments were administered i.p. with an injection volume of 0.2 ml following IACUC approved procedures. Mice were euthanized by CO2 overdose and muscles harvested for analysis. One quadriceps muscle was snap frozen for proteomics and the other quadriceps muscle fixed in buffered formalin for paraffin embedding and trichrome staining. The tibialis anterior was placed in PBS for amplex red assay.

quadriceps muscle = assay: Proteomic analysis of quadriceps muscle of aged mice treated with 1-methyl-D-tryptophan (Table 1, TOPPGENE enrichment); format: in vivo
Procedure: as §1
The IDO inhibitor, 1-methyl-D-tryptophan, blocks kynurenine production and reduces levels of ROS in muscle.

C2C12 myoblasts = assay: ROS by Amplex red assay in C2C12 myoblasts treated with kynurenine; format: cell-based
Procedure: (§2) This example investigated the relationship between kynurenine, a circulating tryptophan metabolite which increases with age, and markers of muscle oxidative stress. C2C12 myoblasts were treated with kynurenine in a dose-dependent manner (0, 1, 10 μM) and reactive oxygen species (“ROS”) was measured using an Amplex red assay. Human myoblasts were also treated with kynurenine (100 μM) and ROS was measured. Female C57BL/6 mice 6 months of age were treated with kynurenine (10 mg/kg BW) or with saline (vehicle control) for 4 weeks. Muscle mass and fiber size were measured from the quadriceps femoris ex vivo, and ROS was measured from paraffin-embedded muscle sections using immunostaining for 4HNE.

human myoblasts = assay: ROS in human myoblasts treated with kynurenine; format: cell-based
Procedure: as §2

quadriceps femoris [1] = assay: Muscle mass and fiber size of quadriceps femoris ex vivo, mice treated with kynurenine for 4 weeks; format: in vivo, C57BL/6 mice; conditions: young mice, kynurenine 10 mg/kg BW
Procedure: as §2

quadriceps femoris [2] = assay: Muscle ROS by 4HNE immunostaining of paraffin-embedded muscle sections, mice treated with kynurenine; format: in vivo, C57BL/6 mice; conditions: young mice, kynurenine 10 mg/kg BW, 4 weeks, P<0.05
Procedure: as §2

[3] = aged mice, 1-methyl-D-tryptophan treatment
[4] = aged mouse muscle after 1-methyl-D-tryptophan treatment

| SMILES | levels of ROS in muscle (Amplex red assay) (tibialis anterior; 1-methyl-D-tryptophan i.p. daily for 4 weeks) | kynurenine production (tibialis anterior; 1-methyl-D-tryptophan treatment) | factors associated with muscle oxidative stress (proteomic analysis) (quadriceps muscle; [3]) | levels of myosin 4 (proteomic analysis) (quadriceps muscle; [3]) | factors associated with muscle degradation (ubiquitin ligases) and oxidative stress (TOPPGENE enrichment of downregulated proteins) (quadriceps muscle; [4]) | factors associated with muscle protein synthesis (TOPPGENE enrichment of upregulated proteins) (quadriceps muscle; [4]) | reactive oxygen species (H2O2 concentration/protein concentration) (C2C12 myoblasts; 1 μm and 10 μm kynurenine, FIG. 1A) | ROS increase (C2C12 myoblasts; kynurenine at both low and high concentrations (1, 10 μM), P<0.01) [fold] | ROS (human myoblasts; 100 μM kynurenine) | reactive oxygen species (human myoblasts; 10 μm kynurenine, FIG. 1B) | quadriceps weight relative to body weight, reduction compared to controls (quadriceps femoris [1]) [%] | muscle fiber size compared to controls (quadriceps femoris [1]; P<0.01) | ROS increase based on 4HNE staining, compared to control (quadriceps femoris [2]) [%] |
| --- | --- | --- | --- | --- | --- | --- | --- | --- | --- | --- | --- | --- | --- |
| Cn1cc(C[C@@H](N)C(=O)O)c2ccccc21 [1-methyl-D-tryptophan, reference compound] | decrease | blocks | reduced; also recorded: decreases | increases | decreased levels | increased levels |  |  |  |  |  |  |  |
| Nc1ccccc1C(=O)CC(N)C(=O)O (stereo not shown) [kynurenine] |  |  |  |  |  |  | increases | 2 | increased | increases | 10 | significantly lower | 20 |
